Inhibition data for ten compounds are collected here from patent publication US9481676B2, “Azepino[4,5-B]indoles and methods of use” (Medivation Technologies, Inc., priority 2008, dated 2016).

Test [1] concerns the target T1, human recombinant serotonin (5-Hydroxytryptamine) 5-HT6 receptor (Homo sapiens, UniProt P50406).
T1 construct: expressed in transfected cells; host or cells: human HeLa cells
The test is described as follows: Serotonin 5-HT6 radioligand binding ([3H]LSD). To be noted: compound at 1 μM; read-out: Serotonin (1 μM) 5-HT6, percent inhibition of specific binding. An outline of the steps: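 Human recombinant 5-HT6 receptor from HeLa cells incubated with 1.5 nM [3H]LSD for 120 min at 37° C in 50 mM Tris-HCl pH 7.4, 150 mM NaCl, 2 mM ascorbic acid, 0.001% BSA. Nonspecific binding defined with 5 μM serotonin; bound ligand counted after filtration.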

Test [2] concerns the target T2, human recombinant histamine H1 receptor (Homo sapiens, UniProt P35367).
T2 construct: expressed in transfected cells; host or cells: CHO cells
Kind of test: Histamine H1 radioligand binding ([3H]Pyrilamine). To be noted: compound at 1 μM; read-out: Histamine Binding (1 μM) H1, percent inhibition of specific binding. An outline of the steps:
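Membranes from CHO cells expressing the receptor were incubated with compound and 1.2 nM [3H]pyrilamine for 180 min at 25 °C in 50 mM Tris-HCl pH 7.4 with MgCl2, NaCl and sucrose; 1 μM pyrilamine defined non-specific binding. Filter-bound radioactivity was counted.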

Test [3] addresses T3, human recombinant adrenergic α2B receptor (Homo sapiens, UniProt P18089).
T3 construct: expressed in transfected cells; host or cells: CHO-K1 cells
T3 sequence (P18089 1-450): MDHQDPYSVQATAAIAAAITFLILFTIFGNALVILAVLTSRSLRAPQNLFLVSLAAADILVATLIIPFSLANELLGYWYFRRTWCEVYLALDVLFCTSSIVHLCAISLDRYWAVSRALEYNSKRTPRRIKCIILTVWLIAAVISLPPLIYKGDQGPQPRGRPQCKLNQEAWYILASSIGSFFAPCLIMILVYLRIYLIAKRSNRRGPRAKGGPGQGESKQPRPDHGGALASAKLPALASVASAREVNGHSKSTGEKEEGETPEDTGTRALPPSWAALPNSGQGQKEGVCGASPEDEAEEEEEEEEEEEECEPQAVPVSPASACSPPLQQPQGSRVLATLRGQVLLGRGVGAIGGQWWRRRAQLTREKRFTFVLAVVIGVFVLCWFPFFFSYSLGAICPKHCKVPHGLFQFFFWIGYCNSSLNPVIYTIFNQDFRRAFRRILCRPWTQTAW
The test is described as follows: Adrenergic alpha2B radioligand binding ([3H]Rauwolscine). The note with it: compound at 1 μM; read-out: Adrenergic (1 μM) α2B, percent inhibition of specific binding. The procedure:
To evaluate in radioligand binding assays the activity of compounds of the invention, human recombinant adrenergic α2B receptor expressed in Chinese hamster ovary (CHO-K1) cells (Uhlen S et al. Eur J. Pharmacol. 343(1):93, 1998) in a modified Tris-HCl buffer (50 mM Tris-HCl, pH 7.4, 12.5 mM MgCl2, 1 mM EDTA, 0.2% BSA) was used. Compounds of the invention were incubated with 2.5 nM [^3H]Rauwolscine for 60 min. at 25° C. Non-specific binding was estimated in the presence of 10 μM Prozosin. Receptor proteins were filtered and washed, the filters were then counted to determine [^3H]Rauwolscine specifically bound. Compounds were screened at 1 μM or lower, using 1% DMSO as vehicle. Biochemical assay results are presented as the percent inhibition of specific binding in Table 5.

The target in test [4] is T4, human recombinant serotonin (5-Hydroxytryptamine) 5-HT2C receptor (Homo sapiens, UniProt P28335).
T4 construct: expressed in transfected cells; host or cells: CHO-K1 cells
T4 sequence (P28335 33-458): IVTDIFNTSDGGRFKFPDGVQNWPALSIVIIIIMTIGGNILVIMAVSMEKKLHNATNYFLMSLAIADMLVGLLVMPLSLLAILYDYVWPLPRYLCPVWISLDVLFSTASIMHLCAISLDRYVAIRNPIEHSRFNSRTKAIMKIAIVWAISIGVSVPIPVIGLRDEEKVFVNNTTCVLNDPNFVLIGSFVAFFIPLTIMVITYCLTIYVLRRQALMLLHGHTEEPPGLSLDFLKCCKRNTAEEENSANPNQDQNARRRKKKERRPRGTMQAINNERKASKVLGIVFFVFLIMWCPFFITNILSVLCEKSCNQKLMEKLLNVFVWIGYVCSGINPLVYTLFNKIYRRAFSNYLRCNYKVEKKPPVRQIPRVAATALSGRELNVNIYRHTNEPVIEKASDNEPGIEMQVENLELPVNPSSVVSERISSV
Kind of test: Serotonin 5-HT2C radioligand binding ([3H]Mesulergine). The note with it: compound at 1 μM; read-out: Serotonin (1 μM) 5-HT2C, percent inhibition of specific binding. The procedure, abridged: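 Membranes from CHO-K1 cells expressing human 5-HT2C, incubated with 1 nM [3H]mesulergine for 60 min at 25 °C in 50 mM Tris-HCl pH 7.4 with ascorbic acid and pargyline.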

T2 sequence (P35367 whole entry): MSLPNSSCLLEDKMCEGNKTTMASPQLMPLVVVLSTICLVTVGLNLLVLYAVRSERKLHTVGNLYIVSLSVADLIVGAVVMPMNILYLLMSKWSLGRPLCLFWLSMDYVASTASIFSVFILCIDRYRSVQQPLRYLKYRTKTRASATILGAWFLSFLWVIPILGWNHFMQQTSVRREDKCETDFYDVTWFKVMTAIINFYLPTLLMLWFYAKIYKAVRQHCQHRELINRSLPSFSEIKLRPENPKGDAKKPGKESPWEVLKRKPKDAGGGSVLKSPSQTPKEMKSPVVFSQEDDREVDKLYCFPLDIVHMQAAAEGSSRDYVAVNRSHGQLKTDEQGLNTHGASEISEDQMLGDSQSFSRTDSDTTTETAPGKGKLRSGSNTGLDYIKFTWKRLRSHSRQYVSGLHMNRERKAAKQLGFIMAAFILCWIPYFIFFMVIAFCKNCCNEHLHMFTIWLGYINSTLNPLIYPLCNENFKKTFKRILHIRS
T1 sequence (P50406 whole entry): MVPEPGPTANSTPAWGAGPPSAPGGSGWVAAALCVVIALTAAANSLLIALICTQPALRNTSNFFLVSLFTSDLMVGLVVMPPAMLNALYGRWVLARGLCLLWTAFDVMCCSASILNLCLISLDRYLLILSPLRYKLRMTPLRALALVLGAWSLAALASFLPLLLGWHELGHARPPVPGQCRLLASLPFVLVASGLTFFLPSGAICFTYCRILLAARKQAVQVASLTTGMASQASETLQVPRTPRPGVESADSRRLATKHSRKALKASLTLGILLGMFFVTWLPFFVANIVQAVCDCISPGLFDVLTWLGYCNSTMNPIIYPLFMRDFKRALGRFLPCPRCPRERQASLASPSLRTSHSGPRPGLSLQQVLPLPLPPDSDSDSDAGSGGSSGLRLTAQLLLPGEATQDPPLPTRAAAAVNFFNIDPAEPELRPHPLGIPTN

Regarding `CC(C)NC(=O)Cn1c2c(c3cc(Cl)ccc31)CCN(C)CC2` [Compound No. 31, 2-(9-chloro-2,3,4,5-tetrahydro-3-methylazepino[4,5-b]indol-6(1H)-yl)-N-isopropylacetamide], the inhibition (commonly the change of the read-out against control, counted positive when it falls) at 1 µM in test [1] worked out at 2%; in test [2], 14%; in test [3], 23%; in test [4], 56%.
Consider `Cc1ccc2c(c1)c1c(n2CC(O)c2ccc(F)cc2F)CCN(C)CC1` (stereo not shown) [Compound No. 59, 1-(2,4-difluorophenyl)-2-(2,3,4,5-tetrahydro-3,9-dimethylazepino[4,5-b]indol-6(1H)-yl)ethanol], for which the inhibition at 1 µM in test [1] was 97%; in test [2] it was 60%; in test [3] it was 9%; in test [4], -3%.
As for `CN1CCc2c(n(CC(=O)N3CCCCC3)c3ccc(Cl)cc23)CC1` [Compound No. 57, 2-(9-chloro-2,3,4,5-tetrahydro-3-methylazepino[4,5-b]indol-6(1H)-yl)-1-(piperidin-1-yl)ethanone], the inhibition at 1 µM in test [1] is -1%; in test [2], 8%; in test [3], 87%; in test [4], 65%.
`Cc1ccc2c(c1)c1c(n2/C=C/c2ccccc2F)CCN(C)CC1` [Compound No. 233, (E)-6-(2-fluorostyryl)-3,9-dimethyl-1,2,3,4,5,6-hexahydroazepino[4,5-b]indole]: the inhibition at 1 µM in test [1] turned out to be 103%; in test [2], 98%; in test [3], 100%; in test [4], 100%.
Consider `COc1ccc(C(O)Cn2c3c(c4cc(C)ccc42)CCN(C)CC3)cc1F` (stereo not shown) [Compound No. 68, 1-(3-fluoro-4-methoxyphenyl)-2-(2,3,4,5-tetrahydro-3,9-dimethylazepino[4,5-b]indol-6(1H)-yl)ethanol], for which the inhibition at 1 µM in test [1] turned out to be 87%; in test [2], 102%; in test [3] it was 100%; in test [4], 95%.
On to `Cc1ccc2c(c1)c1c(n2CC(O)c2ccncc2)CCN(C)CC1` (stereo not shown) [Compound No. 43, 2-(2,3,4,5-tetrahydro-3,9-dimethylazepino[4,5-b]indol-6(1H)-yl)-1-(pyridin-4-yl)ethanol], for which the inhibition at 1 µM was 48% in test [1], 100% in test [2], 107% in test [3] and 91% in test [4].
In the case of `CN1CCc2c(n(CC(O)c3ccncc3)c3ccc(Cl)cc23)CC1` (stereo not shown) [Compound No. 42, 2-(9-chloro-2,3,4,5-tetrahydro-3-methylazepino[4,5-b]indol-6(1H)-yl)-1-(pyridin-4-yl)ethanol], the inhibition at 1 µM stood at 73% in test [1], 103% in test [2], 107% in test [3] and 101% in test [4].
The matching figures for `CN1CCc2c(n(CCc3ccccc3F)c3ccccc23)CC1` [Compound No. 237, 6-(2-fluorophenethyl)-3-methyl-1,2,3,4,5,6-hexahydroazepino[4,5-b]indole]: 103%, 96%, 93% and 100%.
As for `Cc1ccc2c(c1)c1c(n2CC(O)c2ccccc2F)CCN(C)CC1` (stereo not shown) [Compound No. 41, 1-(2-fluorophenyl)-2-(2,3,4,5-tetrahydro-3,9-dimethylazepino[4,5-b]indol-6(1H)-yl)ethanol], the inhibition at 1 µM in test [1] is 101%; in test [2], 100%; in test [3] it was 104%; in test [4] it was 99%.
As to `Cc1ccc2c(c1)c1c(n2CCc2ccc(Cl)cc2)CCN(C)CC1` [Compound No. 28, 6-(4-chlorophenethyl)-1,2,3,4,5,6-hexahydro-3,9-dimethylazepino[4,5-b]indole], the inhibition at 1 µM in test [1] was 95%; in test [2], 103%; in test [3], 103%; in test [4] it was 94%.
